The values below come from publication PMC9857996, “Inhibition of Iron Release from Donkey Spleen Ferritin through Malt-Derived Protein Z–Ferulic Acid Interactions” (Foods, 2023).

For this assay, the target named is T1, protein Z (PZ).
T1 construct: gene PAZ1; single band ~40 kDa; three Trp printed (Trp-150, Trp-186, Trp-257)
Nature of the assay: Trp fluorescence quenching titration. As to conditions: 50.0 mM sodium citrate pH 4.2, 25 °C; 1.0 μM PZ; n = 22.11 ± 2.13 sites per PZ; read-out: K. The class given is binding, Hordeum vulgare.

On to `COc1cc(/C=C/C(=O)O)ccc1O` [ferulic acid], for which the Kd is 2000 nM.
